Values joined by “and” are separate entries in the source; they are usually repeats but may differ in a detail not shown here. Equal entries are not always repeated.

For one experiment, the target named is T1, DHODH (Homo sapiens, UniProt Q02127).
T1 construct: using an N-terminally truncated recombinant DHODH enzyme as described previously[20]
Conditions: recombinant human DHODH; cited from earlier work.

Experiment [1] has as its target T2, Nurr1 (Homo sapiens, UniProt P43354).
T2 construct: expressed in transfected cells; host or cells: HEK293T
The note with it: cited from earlier work; for efficacy_NR4A2: supplementary csv.

Experiment [2] has as its target T2, Nurr1. The experiment can be described thus: Gal4-Nurr1 hybrid reporter gene assay. Conditions: IC50(DHODH) / EC50(Nurr1). Type of experiment: cell-based.
The mark [3] stands for this setting: Gal4-Nurr1 hybrid reporter gene assay.

T2 sequence (P43354 360-595 limits assumed): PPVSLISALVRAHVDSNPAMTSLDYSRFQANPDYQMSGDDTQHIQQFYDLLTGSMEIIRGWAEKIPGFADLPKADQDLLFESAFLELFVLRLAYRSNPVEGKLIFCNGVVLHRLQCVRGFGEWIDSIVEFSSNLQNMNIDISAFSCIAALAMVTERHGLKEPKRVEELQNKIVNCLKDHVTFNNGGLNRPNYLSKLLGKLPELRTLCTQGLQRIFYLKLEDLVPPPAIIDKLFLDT
T1 sequence (Q02127 31-395): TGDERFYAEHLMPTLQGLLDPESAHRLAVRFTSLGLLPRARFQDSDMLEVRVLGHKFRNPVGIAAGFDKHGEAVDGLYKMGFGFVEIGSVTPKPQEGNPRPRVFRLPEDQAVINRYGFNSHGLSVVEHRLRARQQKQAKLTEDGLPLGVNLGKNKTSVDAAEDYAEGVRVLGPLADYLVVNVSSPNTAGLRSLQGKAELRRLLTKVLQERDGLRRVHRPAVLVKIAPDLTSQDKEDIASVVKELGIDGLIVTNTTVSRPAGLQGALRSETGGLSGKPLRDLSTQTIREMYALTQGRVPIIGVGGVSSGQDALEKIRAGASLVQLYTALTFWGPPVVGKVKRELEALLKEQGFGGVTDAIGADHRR

In the case of `[2H]C([2H])([2H])Oc1cccc(-c2cc(F)c(NC(=O)C3=C(c4noc(=O)[nH]4)CCC3)c(F)c2)c1` [compound 8], the IC50 at DHODH is 9.26 µM and 9 µM. At Nurr1 [1] (setting [3]), the EC50 is 1 ± 0.1 µM and the “max. activation (Nurr1)” value was 2.0±0.1 fold. In addition, the efficacy_NR4A2 at Nurr1 [1] was 200%. In addition, the “selectivity index DHODH/Nurr1” value on Nurr1 [2] was 9.

For the molecule `[2H]C([2H])([2H])Oc1cccc(-c2c(F)c(F)c(NC(=O)C3=C(C(=O)O)CCC3)c(F)c2F)c1` [compound 10], at Nurr1 [1] (setting [3]), the “max. activation (Nurr1)” value was 1.9±0.1 fold. Also, the efficacy_NR4A2 on Nurr1 [1] is listed as 188%.

(Values after publication PMC7617969, “Carboxylic Acid Bioisosteres Boost Nurr1 Agonist Selectivity” (Journal of medicinal chemistry, 2025).)
